In ChEMBL document CHEMBL1125586, “Novel thiophene-, pyrrole-, furan-, and benzenecarboxamidotetrazoles as potential antiallergy agents” (J Med Chem, 1991):
Converted amounts (≈) assume the structure as drawn.

Legend:
Homo sapiens [1] = species: Homo sapiens; assay: cells
Description: Percent inhibition of histamine release from human basophils at a concentration of 33 uM.

Homo sapiens [2] = species: Homo sapiens; assay: cells; remark: listed apart in the source
Description: Compound was tested for the concentration to inhibit 50% of anti-IgE-stimulated histamine release from human basophils.

Homo sapiens [3] = species: Homo sapiens; assay: cells; remark: listed apart in the source
Description: Percent inhibition of histamine release from human basophils at a concentration of 10 uM.

physchem [4] = conditions: buffer, pH 7.4
Description: Log P value was determined at pH 7.4 using correlation (HPLC) method.

physchem [5] = conditions: buffer, pH 7.4; remark: listed apart in the source
Description: Solubility was determined at pH 7.4

IC50 (Homo sapiens [2]) [µM]	chromatographic logD (physchem [4])	solubility (physchem [5]) [µg/mL]	SMILES	inhibition at 33 µM (Homo sapiens [1]) [%]	inhibition at 10 µM (Homo sapiens [3]) [%]
8	–	–	Cc1sc(C(=O)Nc2nn[nH]n2)c(OC(C)C)c1Cl	88	55
1.1	1.78	1840 (≈ 5.52 mM)	COc1ccc2sc(C(=O)Nc3nnn[nH]3)c(OC(C)C)c2c1	97	95
–	–	–	Cc1cc(OC(C)C)c(C(=O)Nc2nn[nH]n2)s1	< 25	< 25
–	–	–	COc1ccc(C(=O)Nc2nn[nH]n2)c(OC(C)C)c1[Si](C)(C)C	< 25	< 25
–	–	–	COc1ccc(C(=O)Nc2nn[nH]n2)c(OC(C)C)c1Br	60	< 25
5	–	–	Cc1sc(C(=O)Nc2nn[nH]n2)c(SC(C)C)c1Br	90	74
–	–	–	CC(C)Oc1c(C(=O)Nc2nn[nH]n2)[nH]c(Br)c1Br	< 25	< 25
–	–	–	CC(C)Oc1c(Br)csc1C(=O)Nc1nn[nH]n1	47	30
10	1.17	–	COc1ccc(C(=O)Nc2nn[nH]n2)c(OC(C)C)c1I	73	51
–	–	–	CC(C)Oc1c(C(=O)Nc2nn[nH]n2)sc(-c2ccccc2)c1Br	< 25	< 25
–	–	–	COc1ccc(C(=O)Nc2nn[nH]n2)c(OC(C)C)c1	41	< 25
8.5	2.8	< 1	COc1ccc2c(c1)c1oc(C(=O)Nc3nn[nH]n3)c(OC)c1n2-c1ccccc1	91	66
5	–	–	Cc1sc(C(=O)Nc2nn[nH]n2)c(OCc2ccccc2)c1Br	91	68
–	–	–	Cc1sc(C(=O)Nc2nn[nH]n2)c(OC(C)C)c1C	< 25	< 25
–	–	–	COc1c(Br)cc(C(=O)Nc2nn[nH]n2)c(OC(C)C)c1Br	28	< 25
–	–	–	CC(C)Sc1c(C(=O)Nc2nn[nH]n2)oc(Br)c1Br	< 25	< 25
5	–	–	CCOc1c(C(=O)Nc2nn[nH]n2)sc(C)c1Br	100	77
–	2.66	70 (≈ 0.178 mM)	COc1ccc2c(c1)c(OC(C)C)c(C(=O)Nc1nn[nH]n1)n2-c1ccccc1	82	46
2	1.35	1900 (≈ 5.25 mM)	COc1sc(C(=O)Nc2nn[nH]n2)c(OC(C)C)c1Br	95	92
25	2.52	1900 (≈ 4.66 mM)	CC(C)Oc1c(Br)c(Br)n(C)c1C(=O)Nc1nn[nH]n1	69	37
–	–	–	CC(C)Oc1c(C(=O)Nc2nn[nH]n2)sc(C(C)C)c1Br	< 25	< 25
–	–	–	Cc1sc(C(=O)Nc2nn[nH]n2)c(OC(C)C)c1OC(C)C	< 25	< 25
–	–	–	CCCc1c2oc(C(=O)O)cc(=O)c2cc2c(=O)cc(C(=O)O)n(CC)c12 [NEDOCROMIL]	< 25	< 25
–	–	–	CC(C)Oc1c(Br)c(Br)n(Cc2ccccc2)c1C(=O)Nc1nn[nH]n1	< 25	< 25
–	–	–	Cc1sc(C(=O)Nc2nn[nH]n2)c(OC(C)C)c1C(C)C	< 25	< 25
–	–	–	CC(C)Oc1c(Br)c(Br)n(-c2ccccc2)c1C(=O)Nc1nn[nH]n1	< 25	< 25
–	–	–	COc1c(C(=O)Nc2nn[nH]n2)sc(C)c1Br	53	< 25
2	1.72	3300 (≈ 9.53 mM)	Cc1sc(C(=O)Nc2nn[nH]n2)c(OC(C)C)c1Br	97	85
